Data reported in the supplement of paper PMC11281043.
± gives the standard deviation of the averaged measurements.

Key:
Conditions in all cases: exposure: 6-8 hpf to 5 dpf, scored at 6 dpf
Danio rerio embryo/larva [1] = test: max % larvae dead across tested concentrations; max tested concentration (log10 uM): 2; higher = more toxic; extreme values may be limits of the assay
Danio rerio embryo/larva [2] = test: max % larvae with any abnormality across tested concentrations; max tested concentration (log10 uM): 2; higher = more toxic; extreme values may be limits of the assay
Danio rerio embryo/larva [3] = test: max % larvae unhatched across tested concentrations; max tested concentration (log10 uM): 2; higher = more toxic
Danio rerio embryo/larva [4] = test: max % larvae generally abnormal across tested concentrations; higher = more toxic; extreme values may be limits of the assay
Danio rerio embryo/larva [5] = test: max % larvae with uninflated swim bladder across tested concentrations; higher = more toxic; extreme values may be limits of the assay
Danio rerio embryo/larva [6] = test: max % larvae with pigmentation defects across tested concentrations; higher = more toxic
Danio rerio embryo/larva [7] = test: max % larvae with craniofacial defects across tested concentrations; higher = more toxic; extreme values may be limits of the assay
Danio rerio embryo/larva [8] = test: max % larvae with tail defects across tested concentrations; higher = more toxic; extreme values may be limits of the assay
Danio rerio embryo/larva [9] = test: max % larvae with abnormal position across tested concentrations; higher = more toxic; extreme values may be limits of the assay
Danio rerio embryo/larva [10] = test: max % larvae with edema across tested concentrations; higher = more toxic; extreme values may be limits of the assay
Danio rerio embryo/larva [11] = test: max % larvae with blood pooling across tested concentrations; higher = more toxic; extreme values may be limits of the assay
Danio rerio embryo/larva [12] = test: max % larvae with spinal defects across tested concentrations; higher = more toxic; extreme values may be limits of the assay

| Structure (SMILES) | max % larvae dead across tested concentrations (Danio rerio embryo/larva [1]) | max % larvae (Danio rerio embryo/larva [2]) | max % larvae unhatched across tested concentrations (Danio rerio embryo/larva [3]) | further results |
| --- | --- | --- | --- | --- |
| O=C(CC(=O)C(F)(F)F)C(F)(F)F [1,1,1,5,5,5-Hexafluoro-2,4-pentanedione] | 0% | 0% | 0% |  |
| FC(F)(Br)C(F)(F)C(F)(F)C(F)(F)C(F)(F)C(F)(F)Br [1,6-Dibromododecafluorohexane] | 0% | 4.17% | 0% |  |
| FC(F)(F)C(F)(F)C(F)(F)C(F)(F)CCI [1H,1H,2H,2H-Perfluorohexyl iodide] | 0% | 8.33% | 0% |  |
| OCC(F)(F)C(F)(F)C(F)(F)C(F)F [1H,1H,5H-Perfluoropentanol] | 16.7% | 16.7% | 0% |  |
| OCC(F)(F)C(F)(F)C(F)(F)C(F)(F)C(F)(F)C(F)F [1H,1H,7H-Dodecafluoro-1-heptanol] | 0% | 8.33% | 0% |  |
| OCC(F)(F)OC(F)(F)C(F)(F)OC(F)(F)CO [1H,1H,8H,8H-Perfluoro-3,6-dioxaoctane-1,8-diol] | 0% | 0% | 0% |  |
| FC(F)(F)C(F)(F)C(F)(F)CC1CO1 (stereo not drawn) [1H,1H-Heptafluorobutyl epoxide] | 0% | 9.09% | 0% |  |
| C=CC(=O)OCC(F)(F)C(F)(F)C(F)(F)C(F)(F)C(F)(F)C(F)(F)C(F)(F)F [1H,1H-Perfluorooctyl acrylate] | 0% | 0% | 0% |  |
| NCC(F)(F)C(F)(F)C(F)(F)C(F)(F)C(F)(F)C(F)(F)C(F)(F)F [1H,1H-Perfluorooctylamine] | 8.33 ± 12% | 33.3 ± 47% | 0% |  |
| C=C(C)C(=O)OCCC(F)(F)C(F)(F)C(F)(F)C(F)(F)C(F)(F)C(F)(F)F [2-(Perfluorohexyl)ethyl methacrylate] | 0% | 0% | 0% |  |
| C=CC(=O)OCCC(F)(F)C(F)(F)C(F)(F)C(F)(F)C(F)(F)C(F)(F)C(F)(F)C(F)(F)F [2-(Perfluorooctyl)ethyl acrylate] | 0% | 0% | 0% |  |
| C=C(C)C(=O)OCCC(F)(F)C(F)(F)C(F)(F)C(F)(F)C(F)(F)C(F)(F)C(F)(F)C(F)(F)F [2-(Perfluorooctyl)ethyl methacrylate] | 0% | 0% | 0% |  |
| O=C(O)C=C(C(F)(F)F)C(F)(F)F [3,3-Bis(trifluoromethyl)-2-propenoic acid] | 0% | 2.08% | 0% |  |
| O=C(O)C=CC(F)(C(F)(F)F)C(F)(F)F [3-(Perfluoroisopropyl)-2-propenoic acid] | 0% | 16.7% | 0% |  |
| OCCCC(F)(F)C(F)(F)C(F)(F)C(F)(F)C(F)(F)C(F)(F)C(F)(F)C(F)(F)F [3-(Perfluorooctyl)propanol] | 0% | 0% | 0% |  |
| OCC(F)(F)C(F)(F)C(F)(F)F [3:1 Fluorotelomer alcohol] | 0% | 8.33% | 0% |  |
| O=C(O)CCC(F)(C(F)(F)F)C(F)(F)F [4,4-bis(Trifluoromethyl)-4-fluoropropanoic acid] | 16.7% | 16.7% | 0% |  |
| OCCC(F)(F)C(F)(F)C(F)(F)C(F)(F)F [4:2 Fluorotelomer alcohol] | 0% | 4.17% | 0% |  |
| O=S(=O)(O)CCC(F)(F)C(F)(F)C(F)(F)C(F)(F)F [4:2 Fluorotelomer sulfonic acid] | 0% | 0% | 0% |  |

| Structure (SMILES) | max % larvae dead across tested concentrations (Danio rerio embryo/larva [1]) | max % larvae (Danio rerio embryo/larva [2]) | max % larvae unhatched across tested concentrations (Danio rerio embryo/larva [3]) | further results |
| --- | --- | --- | --- | --- |
| O=C(O)C(F)(F)C(F)(F)C(F)F [4H-Perfluorobutanoic acid] | 0% | 0% | 0% |  |
| O=P(O)(O)OCCC(F)(F)C(F)(F)C(F)(F)C(F)(F)C(F)(F)C(F)(F)F [6:2 Fluorotelomer phosphate monoester] | 0% | 0% | 0% |  |
| O=S(=O)(O)CCC(F)(F)C(F)(F)C(F)(F)C(F)(F)C(F)(F)C(F)(F)F [6:2 Fluorotelomer sulfonic acid] | 16.7% | 16.7% | 0% |  |
| O=S(=O)(O)CCC(F)(F)C(F)(F)C(F)(F)C(F)(F)C(F)(F)C(F)(F)C(F)(F)C(F)(F)F [8:2 Fluorotelomer sulfonic acid] | 0% | 0% | 0% |  |
| O=C(O)C(F)(F)C(F)(F)C(F)(F)C(F)(F)C(F)(F)C(F)(F)C(F)F [8H-Perfluorooctanoic acid] | 0% | 16.7% | 0% |  |
| O=C(O)C(F)(F)C(F)(F)C(F)(F)C(F)(F)C(F)(F)C(F)(F)C(F)(F)C(F)F [9H-Perfluorononanoic acid] | 0% | 18.8% | 0% |  |
| C=C(C)C(=O)OCCC(F)(F)C(F)(F)C(F)(F)C(F)(F)C(F)(C(F)(F)F)C(F)(F)F [(Perfluoro-5-methylhexyl)ethyl 2-methylprop-2-enoate] | 0% | 0% | 0% |  |
| C=C(C)C(=O)OCC(F)(F)C(F)(F)C(F)(F)F [(Perfluoropropyl)methyl methacrylate] | 0% | 8.33% | 0% |  |
| FC(F)(F)C(F)(F)CNCC(F)(F)C(F)(F)F [Bis(1H,1H-perfluoropropyl)amine] | 0% | 16.7% | 0% |  |
| CCOC(=O)CC(=O)C(F)(F)C(F)(F)F [Ethyl pentafluoropropionyl acetate] | 0% | 0% | 0% |  |
| FC(F)(F)C(F)(F)C(F)(F)CI [Heptafluorobutyl iodide] | 0% | 0% | 0% |  |
| NC(=O)C(F)(F)C(F)(F)C(F)(F)F [Heptafluorobutyramide] | 16.7% | 25% | 0% |  |
| OCC(F)(F)C(F)(F)C(F)(F)CO [Hexafluoroamylene glycol] | 0% | 0% | 0% |  |
| O=C(Cl)C(F)(F)C(F)(F)C(F)(F)C(=O)Cl [Hexafluoroglutaryl chloride] | 0% | 0% | 0% |  |
| COC(=O)C(F)(F)C(F)(F)C(F)(F)C(F)(F)C(F)(F)F [Methyl perfluorohexanoate] | 0% | 0% | 0% |  |
| O=S(=O)(O)C(F)(F)C(F)(F)C(F)(F)C(F)(F)F [Potassium perfluorobutanesulfonate] (max tested concentration (log10 uM): 2) |  |  |  | max % larvae generally abnormal across tested concentrations (Danio rerio embryo/larva [4]): 4.17%; max % larvae (Danio rerio embryo/larva [5]): 8.33%; max % larvae (Danio rerio embryo/larva [6]): 0%; max % larvae (Danio rerio embryo/larva [7]): 0%; max % larvae (Danio rerio embryo/larva [8]): 0%; max % larvae (Danio rerio embryo/larva [9]): 0%; max % larvae (Danio rerio embryo/larva [10]): 0%; max % larvae (Danio rerio embryo/larva [11]): 0%; max % larvae (Danio rerio embryo/larva [12]): 0% |
| O=S(=O)(O)C(F)(F)C(F)(F)C(F)(F)C(F)(F)C(F)(F)C(F)(F)F [Potassium perfluorohexanesulfonate] (max tested concentration (log10 uM): 2) |  |  |  | max % larvae generally abnormal across tested concentrations (Danio rerio embryo/larva [4]): 55.6%; max % larvae (Danio rerio embryo/larva [5]): 77.8%; max % larvae (Danio rerio embryo/larva [6]): 0%; max % larvae (Danio rerio embryo/larva [7]): 33.3%; max % larvae (Danio rerio embryo/larva [8]): 0%; max % larvae (Danio rerio embryo/larva [9]): 19.4%; max % larvae (Danio rerio embryo/larva [10]): 44.4%; max % larvae (Danio rerio embryo/larva [11]): 16.7%; max % larvae (Danio rerio embryo/larva [12]): 0% |
| O=C(O)C(F)(F)C(F)(F)C(F)(F)C(F)(F)C(F)(F)C(F)(F)C(F)(F)F [Sodium perfluorooctanoate] (max tested concentration (log10 uM): 2) |  |  |  | max % larvae generally abnormal across tested concentrations (Danio rerio embryo/larva [4]): 0%; max % larvae (Danio rerio embryo/larva [5]): 0%; max % larvae (Danio rerio embryo/larva [6]): 0%; max % larvae (Danio rerio embryo/larva [7]): 0%; max % larvae (Danio rerio embryo/larva [8]): 0%; max % larvae (Danio rerio embryo/larva [9]): 0%; max % larvae (Danio rerio embryo/larva [10]): 0%; max % larvae (Danio rerio embryo/larva [11]): 0%; max % larvae (Danio rerio embryo/larva [12]): 0% |
| FC(F)(F)COC(OCC(F)(F)F)OCC(F)(F)F [tris(Trifluoroethoxy)methane] (max tested concentration (log10 uM): 2) |  |  |  | max % larvae generally abnormal across tested concentrations (Danio rerio embryo/larva [4]): 0%; max % larvae (Danio rerio embryo/larva [5]): 0%; max % larvae (Danio rerio embryo/larva [6]): 0%; max % larvae (Danio rerio embryo/larva [7]): 0%; max % larvae (Danio rerio embryo/larva [8]): 0%; max % larvae (Danio rerio embryo/larva [9]): 0%; max % larvae (Danio rerio embryo/larva [10]): 0%; max % larvae (Danio rerio embryo/larva [11]): 0%; max % larvae (Danio rerio embryo/larva [12]): 0% |
